Consider one molecule from patent US20050207984A1, “Formoterol and ciclesonide aerosol formulations” (priority 2002, published 2005).

The data set is described as follows: Chemical stability, ciclesonide related impurities by HPLC. The class given is physicochemical. The conditions noted are these: 5 days at 50° C. The procedure:
MDI units from Example 2 were stored for 5 days at 50° C. in both valve-up and valve-down orientations (two units at each orientation). The samples were then tested for ciclesonide related impurities by High Performance Liquid Chromatography and the following results were obtained: […]

Turning to `CC(C)C(=O)OCC(=O)[C@@]12O[C@H](C3CCCCC3)O[C@@H]1C[C@H]1[C@@H]3CCC4=CC(=O)C=C[C@]4(C)[C@H]3[C@@H](O)C[C@@]12C` [ciclesonide, 11β, 16α, 17, 21-tetrahydroxypregna 1,4-diene-3,20-dione, cyclic 16,17-acetal with cyclohexanecarboxaldehyde, 21-isobutyrate], the “chemical stability in the example formulation” value is “high degree of chemical stability”.
